In PubChem BioAssay AID330 (DTP/NCI, 2004):
Where “and” joins values, the source holds several entries; their conditions need not be identical. Equal entries are not always repeated. Inconclusive results and toxic doses are left out.

System: P388 leukemia ip, CD2F1 mice, survival T/C
Assay: NCI In Vivo Anticancer Drug Screen. Data for tumor model P388 Leukemia (intraperitoneal) in CD2F1 (CDF1) mice
Settings: endpoint: median survival time, higher = longer survival
How it was run: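 Mice carrying the transplanted tumor received test compound or vehicle. Survival was recorded in each group, and the value is the treated-group measurement divided by that of the vehicle-treated control group.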

[1] = dose: 100.0 mg/kg/injection, schedule: Q01DX009 (ip), vehicle: saline with Tween-80
[2] = dose: 200.0 mg/kg/injection, schedule: Q01DX009 (ip), vehicle: saline with Tween-80
[3] = dose: 400.0 mg/kg/injection, schedule: Q01DX009 (ip), vehicle: saline with Tween-80
[4] = dose: 50.0 mg/kg/injection, schedule: Q01DX005 (ip), vehicle: Klucel (hydroxypropylcellulose) (HPC)
[5] = dose: 100.0 mg/kg/injection, schedule: Q01DX005 (ip), vehicle: Klucel (hydroxypropylcellulose) (HPC)
[6] = dose: 60.0 mg/kg/injection, schedule: Q01DX005 (ip), vehicle: saline with Tween-80
[7] = dose: 120.0 mg/kg/injection, schedule: Q01DX005 (ip), vehicle: saline with Tween-80
[8] = dose: 240.0 mg/kg/injection, schedule: Q01DX005 (ip), vehicle: saline with Tween-80
[9] = dose: 200.0 mg/kg/injection, schedule: Q01DX005 (ip), vehicle: Klucel (hydroxypropylcellulose) (HPC)
[10] = dose: 50.0 mg/kg/injection, schedule: Q01DX009 (ip), vehicle: saline
[11] = dose: 12.5 mg/kg/injection, schedule: Q01DX005 (ip), vehicle: Klucel (hydroxypropylcellulose) (HPC)
[12] = dose: 25.0 mg/kg/injection, schedule: Q01DX005 (ip), vehicle: Klucel (hydroxypropylcellulose) (HPC)

With CC1(C)OC(=O)C(Cc2ccco2)C(=O)O1 the T/C (dose: 100.0 mg/kg/injection, schedule: Q04DX002 (ip), vehicle: saline with Tween-80) was 97 % of control, the T/C (dose: 200.0 mg/kg/injection, schedule: Q04DX002 (ip), vehicle: saline with Tween-80) was 106 % of control and the T/C (dose: 400.0 mg/kg/injection, schedule: Q04DX002 (ip), vehicle: saline with Tween-80) was 101 % of control.
With Cc1ccc(NS(=O)(=O)c2ccc([N+](=O)[O-])cc2)c(C)c1 the T/C [1] was 100 % of control, the T/C [2] was 105 % of control and the T/C [3] was 115 % of control.
Cc1cc(Br)c2ccccc2c1NS(=O)(=O)c1ccccc1 was tested, and the T/C [1] was 100 % of control, the T/C [2] was 100 % of control and the T/C [3] was 90 % of control.
With OCCN1CCN(CCCN2c3cc(Cl)ccc3Sc3ccsc32)CC1 the T/C [4] was 97 % of control and the T/C [5] was 97 % of control.
For CCC1=C(NCc2ccccc2)COC1=O, the T/C (dose: 50.0 mg/kg/injection, schedule: Q01DX001 (ip), vehicle: Klucel (hydroxypropylcellulose) (HPC)) was 100 % of control, the T/C (dose: 100.0 mg/kg/injection, schedule: Q01DX001 (ip), vehicle: Klucel (hydroxypropylcellulose) (HPC)) was 101 % of control and the T/C (dose: 200.0 mg/kg/injection, schedule: Q01DX001 (ip), vehicle: Klucel (hydroxypropylcellulose) (HPC)) was 100 % of control.
In the case of CCCCCCCCCCCc1n(Cc2ccccc2)c2ccccc2[n+]1C, the T/C (dose: 0.25 mg/kg/injection, schedule: Q01DX009 (ip), vehicle: saline sonified) is reported as 104 % of control and the T/C (dose: 0.5 mg/kg/injection, schedule: Q01DX009 (ip), vehicle: saline sonified) is reported as 109 % of control.
For [CH2+][B-]1(C)n2cc(Br)c[n+]2[B-](C)(C)[n+]2cc(Br)cn21, the T/C [6] was 102 % of control, the T/C [7] was 103 % of control and the T/C [8] was 103 % of control.
With O=C(O)C(=O)O.O=C(O)C(=O)O.O=C(O)C(=O)O.[Ir] the T/C (dose: 12.5 mg/kg/injection, schedule: Q04DX003 (ip), vehicle: water) was 120 % of control, the T/C (dose: 25.0 mg/kg/injection, schedule: Q04DX003 (ip), vehicle: water) was 120 % of control and the T/C (dose: 50.0 mg/kg/injection, schedule: Q04DX003 (ip), vehicle: water) was 93 % of control. For the same compound, the T/C (dose: 100.0 mg/kg/injection, schedule: Q04DX003 (ip), vehicle: water) was 98 % of control.
With CCOC(=O)C1=C(C)OC(C)(/N=C(\C#N)C(=O)OC)C1c1ccccc1 (centres undefined) the T/C [6] was 93 % of control, the T/C [7] was 95 % of control and the T/C [8] was 98 % of control.
With NC(Cc1ccc(N(CCCl)CCCl)cc1)C(=O)O (centres undefined) the T/C (dose: 3.12 mg/kg/injection, schedule: Q01DX009 (ip), vehicle: Klucel (hydroxypropylcellulose) (HPC)) was 285 % of control and 309 % of control and the T/C (dose: 6.25 mg/kg/injection, schedule: Q01DX009 (ip), vehicle: Klucel (hydroxypropylcellulose) (HPC)) was 99 % of control and 105 % of control and 117 % of control.
O=C(Cl)CC1CC(=O)OC1=O (centres undefined) was tested, and the T/C (dose: 50.0 mg/kg/injection, schedule: Q01DX009 (ip), vehicle: saline with Tween-80) was 100 % of control and the T/C [1] was 95 % of control.
For CCC(O)Cn1cnc2c(N)ncnc21 (centres undefined), the T/C [4] was 99 % of control, the T/C [5] was 99 % of control and the T/C [9] was 100 % of control.
In the case of O=C(CO)N(O)c1ccc(Cl)cc1, the T/C (dose: 50.0 mg/kg/injection, schedule: Q01DX009 (ip), vehicle: water) is reported as 109 % of control and the T/C (dose: 100.0 mg/kg/injection, schedule: Q01DX009 (ip), vehicle: water) is reported as 101 % of control.
In the case of [CH3][Ge]([CH3])[c]1ccccc1, the T/C [10] is reported as 101 % of control and the T/C (dose: 100.0 mg/kg/injection, schedule: Q01DX009 (ip), vehicle: saline) is reported as 95 % of control.
CCC1(c2ccccc2)C(=O)c2ccccc2C1=O was tested, and the T/C (dose: 100.0 mg/kg/injection, schedule: Q04DX002 (ip), vehicle: saline) was 101 % of control, the T/C (dose: 200.0 mg/kg/injection, schedule: Q04DX002 (ip), vehicle: saline) was 102 % of control and the T/C (dose: 400.0 mg/kg/injection, schedule: Q04DX002 (ip), vehicle: saline) was 105 % of control.
For COC(=O)C1(F)C(=O)NC(=O)NC1O (centres undefined), the T/C (dose: 7.5 mg/kg/injection, schedule: Q01DX005 (ip), vehicle: saline) was 100 % of control, the T/C (dose: 15.0 mg/kg/injection, schedule: Q01DX005 (ip), vehicle: saline) was 102 % of control and the T/C (dose: 30.0 mg/kg/injection, schedule: Q01DX005 (ip), vehicle: saline) was 100 % of control.
In the case of CC1CN(C(=O)/C=C/C(=O)OC2CCCCC2)CCN1C(=O)/C=C/C(=O)OC1CCCCC1 (centres undefined), the T/C [4] is reported as 100 % of control, the T/C [5] is reported as 100 % of control and the T/C [9] is reported as 98 % of control.
CC(C)(C)OC1CCC2=CC(=O)CCC21C (centres undefined) was tested, and the T/C (dose: 100.0 mg/kg/injection, schedule: Q04DX002 (ip), vehicle: other) was 119 % of control.
With CCCCCCC1N=C(N)N=C(N)N1c1cccc(Cl)c1 (centres undefined) the T/C [11] was 118 % of control and the T/C [12] was 114 % of control.
CC1=C(C2CO2)C(=O)C(C)=C(C2CO2)C1=O (centres undefined) was tested, and the T/C (dose: 1.56 mg/kg/injection, schedule: Q04DX002 (ip), vehicle: Klucel (hydroxypropylcellulose) (HPC)) was 95 % of control, the T/C (dose: 3.12 mg/kg/injection, schedule: Q04DX002 (ip), vehicle: Klucel (hydroxypropylcellulose) (HPC)) was 93 % of control and the T/C (dose: 6.25 mg/kg/injection, schedule: Q04DX002 (ip), vehicle: Klucel (hydroxypropylcellulose) (HPC)) was 88 % of control. For the same compound, the T/C (dose: 12.5 mg/kg/injection, schedule: Q04DX002 (ip), vehicle: Klucel (hydroxypropylcellulose) (HPC)) was 89 % of control.
With COC(=O)/C=C/C(=O)NC(N)=O the T/C (dose: 6.25 mg/kg/injection, schedule: Q04DX003 (ip), vehicle: saline) was 100 % of control, the T/C (dose: 12.5 mg/kg/injection, schedule: Q04DX003 (ip), vehicle: saline) was 109 % of control and the T/C (dose: 25.0 mg/kg/injection, schedule: Q04DX003 (ip), vehicle: saline) was 100 % of control.
CCN(CC)CCOC(=O)Nc1c(Cl)cccc1Cl was tested, and the T/C [12] was 100 % of control, the T/C [4] was 107 % of control and the T/C (dose: 60.0 mg/kg/injection, schedule: Q01DX005 (ip), vehicle: Klucel (hydroxypropylcellulose) (HPC)) was 100 % of control. For the same compound, the T/C [5] was 100 % of control.
Cc1cc(=O)oc2c(C)c3occc(=O)c3cc12 was tested, and the T/C (dose: 100.0 mg/kg/injection, schedule: Q01DX001 (ip), vehicle: saline with Tween-80) was 99 % of control, the T/C (dose: 200.0 mg/kg/injection, schedule: Q01DX001 (ip), vehicle: saline with Tween-80) was 90 % of control and the T/C (dose: 400.0 mg/kg/injection, schedule: Q01DX001 (ip), vehicle: saline with Tween-80) was 87 % of control.
With CC1(C)CC(=O)C2=C(C1)NC(=O)CC2 the T/C [6] was 101 % of control, the T/C [7] was 101 % of control and the T/C [8] was 96 % of control.
CCCCCCCCCCCCC[N+]1([O-])CCOCC1 was tested, and the T/C (dose: 12.5 mg/kg/injection, schedule: Q01DX009 (ip), vehicle: saline) was 101 % of control, the T/C (dose: 25.0 mg/kg/injection, schedule: Q01DX009 (ip), vehicle: saline) was 100 % of control and the T/C [10] was 89 % of control and 96 % of control.
For Oc1ccccc1, the T/C (dose: 0.12 % in 0.5 ml injection vol, schedule: Q01DX009 (ip), vehicle: water) was 103 % of control, the T/C (dose: 0.25 % in 0.5 ml injection vol, schedule: Q01DX009 (ip), vehicle: water) was 103 % of control and the T/C (dose: 0.5 % in 0.5 ml injection vol, schedule: Q01DX009 (ip), vehicle: water) was 111 % of control. The T/C (dose: 1.0 % in 0.5 ml injection vol, schedule: Q01DX009 (ip), vehicle: water) was 118 % of control.
For CS1(=O)=NC(=NC#N)c2ccccc21 (centres undefined), the T/C (dose: 50.0 mg/kg/injection, schedule: Q01DX009 (ip), vehicle: Klucel (hydroxypropylcellulose) (HPC)) was 101 % of control and the T/C (dose: 100.0 mg/kg/injection, schedule: Q01DX009 (ip), vehicle: Klucel (hydroxypropylcellulose) (HPC)) was 94 % of control.
In the case of CN(C)C1C(O)C2Oc3c(cc(O)c4c3C(=O)c3cc5c(c(O)c3C4=O)C(N3CCCC3)CC(C)(O)C5)C(C)(O2)C1O (centres undefined), the T/C (dose: 3.12 mg/kg/injection, schedule: Q01DX009 (ip), vehicle: other) is reported as 113 % of control, the T/C (dose: 6.25 mg/kg/injection, schedule: Q01DX009 (ip), vehicle: other) is reported as 116 % of control and the T/C (dose: 12.5 mg/kg/injection, schedule: Q01DX009 (ip), vehicle: other) is reported as 122 % of control.
With Nc1nc(N)c2ncn(-c3ccc(Br)cc3)c2n1 the T/C (dose: 50.0 mg/kg/injection, schedule: Q01DX005 (ip), vehicle: saline with Tween-80) was 95 % of control, the T/C (dose: 100.0 mg/kg/injection, schedule: Q01DX005 (ip), vehicle: saline with Tween-80) was 92 % of control and the T/C (dose: 200.0 mg/kg/injection, schedule: Q01DX005 (ip), vehicle: saline with Tween-80) was 91 % of control.
CCCCCCCCCCCC1CCCC(C)N1 (centres undefined) was tested, and the T/C [11] was 104 % of control, the T/C [12] was 100 % of control and the T/C [4] was 101 % of control.
